# US20230382949A1 (HEPTARES THERAPEUTICS LIMITED, priority 2020, published 2023)
# Read-outs that look alike come from different tables or passages of the source. Starred links: 1 amine or outer side, 2 acyl side, 3 side chain; linkers in the order of their positions; H or OH if unused. Non-standard residues stand in square brackets, D forms with d. Residues, ends and D or L forms follow the SMILES beside them. *: point of attachment. Ala(piperidin-4-yl) = O=C([C@H](CC1CCN([*:3])CC1)N[*:1])[*:2]; Malonyl(2,2-Me2,histaminyl) = CC(C)(C(=O)NCCc1cnc[nH]1)C(=O)*; dBip = N[C@H](Cc1ccc(-c2ccccc2)cc1)C(=O)O; Oic = O=C(O)[C@@H]1C[C@@H]2CCCC[C@@H]2N1; Phe(4-Br) = N[C@@H](Cc1ccc(Br)cc1)C(=O)O; Phe(4-Cl) = N[C@@H](Cc1ccc(Cl)cc1)C(=O)O; X2 = COCCOCCOCCOCCOCCNC(=O)C(C)(C)C(=O)*; 2Nal = N[C@@H](Cc1ccc2ccccc2c1)C(=O)O; X4 = CC(C)(C(=O)NCCCc1cnc[nH]1)C(=O)*; X5 = CC(C)(C(=O)NCc1c[nH]cn1)C(=O)*; X1 = CC(C)(C(=O)NCCc1ccccc1)C(=O)*; hArg = N=C(N)NCCCC[C@H](N)C(=O)O; NMeL = CN[C@@H](CC(C)C)C(=O)O; Pip = O=C(O)[C@@H]1CCCCN1; Aib = CC(C)(N)C(=O)O
# Legend:
# [1] = target: T1, human Apelin receptor (Homo sapiens, UniProt P35414); assay: cAMP accumulation assay (HTRF), functional agonism of human Apelin receptors; assay type: cell-based
# T1 sequence (P35414 1-380): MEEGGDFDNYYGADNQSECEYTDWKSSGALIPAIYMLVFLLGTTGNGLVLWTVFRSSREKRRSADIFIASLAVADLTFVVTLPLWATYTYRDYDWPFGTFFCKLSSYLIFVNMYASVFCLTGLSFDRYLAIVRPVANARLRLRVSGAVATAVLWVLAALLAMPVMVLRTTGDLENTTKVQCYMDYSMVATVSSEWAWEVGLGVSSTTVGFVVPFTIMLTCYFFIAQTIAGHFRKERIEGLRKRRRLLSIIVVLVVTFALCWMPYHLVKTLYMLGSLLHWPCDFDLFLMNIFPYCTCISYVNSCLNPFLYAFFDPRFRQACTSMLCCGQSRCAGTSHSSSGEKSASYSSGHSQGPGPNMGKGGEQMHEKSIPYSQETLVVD
# Description: cAMP functional assay. cAMP production was quantified using the Homogeneous Time-Resolved Fluorescence (HTRF) cAMP dynamic-2 assay (Cisbio, France).
# [2] = target: T2, human Apelin receptor (Homo sapiens, UniProt P35414); assay: β-arrestin accumulation assay, functional agonism of human Apelin receptors; assay type: cell-based
# T2 construct: host or cells: CHO-K1 cells
# Procedure: β-arrestin assay. […] After 16 h incubation at 37° C. media was removed and cells were incubated at 37° C. for 90 min in serum free media containing increasing concentrations of test agonist. The assay reaction was stopped by adding detection reagent (DiscoveRx) and incubation for 60 min in the dark. Levels of receptor activation were then measured on a PheraStar fluorescence plate reader (BMG LabTech) and EC50 values were determined using Graphpad Prism.
# T2 sequence (P32121 whole entry partner, one chain of several): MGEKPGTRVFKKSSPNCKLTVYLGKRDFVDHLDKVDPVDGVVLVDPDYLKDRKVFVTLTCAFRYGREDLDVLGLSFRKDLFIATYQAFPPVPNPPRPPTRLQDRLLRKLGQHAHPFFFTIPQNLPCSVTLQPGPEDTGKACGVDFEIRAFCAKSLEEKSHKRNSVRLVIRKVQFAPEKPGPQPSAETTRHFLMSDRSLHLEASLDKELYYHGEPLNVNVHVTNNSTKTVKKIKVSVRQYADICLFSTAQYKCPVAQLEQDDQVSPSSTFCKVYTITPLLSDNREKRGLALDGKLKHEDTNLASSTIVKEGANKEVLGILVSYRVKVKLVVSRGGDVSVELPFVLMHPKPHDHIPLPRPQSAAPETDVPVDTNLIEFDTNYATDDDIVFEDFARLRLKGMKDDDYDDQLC
# [3] = CHO, Human Apelin agonist cAMP assay, CHO cells stably expressing the human Apelin receptor, 3 uM forskolin
# [4] = pEC50, Human Apelin agonist cAMP assay, CHO cells stably expressing the human Apelin receptor, 3 uM forskolin
"Emax ([1]; CHO, read-out: Emax)",EC50 ([1]; read-out: pEC50 (converted)),SMILES,"Emax [1, 3]","EC50 [1, 4]",EC50 [2],"Emax ([1]; Human Apelin agonist cAMP assay, CHO cells stably expressing the human Apelin receptor, 3 uM forskolin)","Human Apelin agonist β-arrestin assay pEC50 ([2]; CHO-K1 cells overexpressing human Apelin receptor and β-arrestin, 90 min)"
,,"CC(C)C[C@H](NC(=O)[C@@H](CCCNC(=N)N)NC(=O)[C@@H]1CCCN1C(=O)[C@H](CCCCNC(=N)N)NC(=O)[C@H](CCC(N)=O)NC(=O)[C@@H](CCCNC(=N)N)NC(=O)C(C)(C)C(=O)NCCc1c[nH]cn1)C(=O)NC(C)(C)C(=O)N[C@@H](Cc1c[nH]cn1)C(=O)N[C@@H](CC1CCNCC1)C(=O)NCC(=O)N1[C@H](C(=O)N[C@@H](Cc2ccc(Br)cc2)C(=O)N2CCCC[C@H]2C(=O)N[C@H](Cc2ccc(-c3ccccc3)cc2)C(=O)O)C[C@@H]2CCCC[C@@H]21 [Example 21] ({Malonyl(2,2-Me2,histaminyl)}-[dR]Q[hArg]P[dR]L[Aib]H[Ala(piperidin-4-yl)]G[Oic][Phe(4-Br)][Pip][dBip]-OH)",54.5%,10 nM,> 1000 nM,,
,,"CC(C)C[C@H](NC(=O)[C@@H](CCCNC(=N)N)NC(=O)[C@@H]1CCCN1C(=O)[C@H](CCCCNC(=N)N)NC(=O)[C@H](CCC(N)=O)NC(=O)[C@@H](CCCNC(=N)N)NC(=O)C(C)(C)C(=O)NCCc1c[nH]cn1)C(=O)NC(C)(C)C(=O)N[C@@H](Cc1c[nH]cn1)C(=O)N[C@@H](CC1CCNCC1)C(=O)NCC(=O)N1[C@H](C(=O)N[C@@H](Cc2ccc3ccccc3c2)C(=O)N2CCC[C@H]2C(=O)N[C@H](Cc2ccc(-c3ccccc3)cc2)C(=O)O)C[C@@H]2CCCC[C@@H]21 [Example 20] ({Malonyl(2,2-Me2,histaminyl)}-[dR]Q[hArg]P[dR]L[Aib]H[Ala(piperidin-4-yl)]G[Oic][2Nal]P[dBip]-OH)",84.1%,12.6 nM,> 10000 nM,,
,,"CC(C)C[C@H](NC(=O)[C@@H](CCCNC(=N)N)NC(=O)[C@@H]1CCCN1C(=O)[C@H](CCCCNC(=N)N)NC(=O)[C@H](CCC(N)=O)NC(=O)[C@@H](CCCNC(=N)N)NC(=O)C(C)(C)C(=O)NCCc1c[nH]cn1)C(=O)NC(C)(C)C(=O)N[C@@H](Cc1c[nH]cn1)C(=O)N[C@@H](CC1CCNCC1)C(=O)N[C@@H](C)C(=O)N1[C@H](C(=O)N[C@@H](Cc2ccc(Br)cc2)C(=O)N2CCC[C@H]2C(=O)N[C@H](Cc2ccc(-c3ccccc3)cc2)C(=O)O)C[C@@H]2CCCC[C@@H]21 [Example 16] ({Malonyl(2,2-Me2,histaminyl)}-[dR]Q[hArg]P[dR]L[Aib]H[Ala(piperidin-4-yl)]A[Oic][Phe(4-Br)]P[dBip]-OH)",64.8%,5.01 nM,> 1000 nM,,
,,"CC(C)C[C@@H](C(=O)NC(C)(C)C(=O)N[C@@H](Cc1c[nH]cn1)C(=O)N[C@@H](CC1CCNCC1)C(=O)NCC(=O)N1[C@H](C(=O)N[C@@H](Cc2ccc(Br)cc2)C(=O)N2CCC[C@H]2C(=O)N[C@H](Cc2ccc(-c3ccccc3)cc2)C(=O)O)C[C@@H]2CCCC[C@@H]21)N(C)C(=O)[C@@H](CCCNC(=N)N)NC(=O)[C@@H]1CCCN1C(=O)[C@H](CCCCNC(=N)N)NC(=O)[C@H](CCC(N)=O)NC(=O)C(C)(C)C(=O)NCCc1cnc[nH]1 [Example 51] ({Malonyl(2,2-Me2,histaminyl)}-Q[hArg]P[dR][NMeL][Aib]H[Ala(piperidin-4-yl)]G[Oic][Phe(4-Br)]P[dBip]-OH)",27.6%,79.4 nM,> 10000 nM,,
,,CC(C)C[C@H](NC(=O)[C@@H](CCCNC(=N)N)NC(=O)[C@@H]1CCCN1C(=O)[C@H](CCCCNC(=N)N)NC(=O)[C@H](CCC(N)=O)NC(=O)[C@@H](CCCNC(=N)N)NC(=O)C(C)(C)C(=O)NCCCc1cnc[nH]1)C(=O)NC(C)(C)C(=O)N[C@@H](Cc1c[nH]cn1)C(=O)N[C@@H](CC1CCNCC1)C(=O)NCC(=O)N1[C@H](C(=O)N[C@@H](Cc2ccc(Br)cc2)C(=O)N2CCC[C@H]2C(=O)N[C@H](Cc2ccc(-c3ccccc3)cc2)C(=O)O)C[C@@H]2CCCC[C@@H]21 [Example 36] (X4-[dR]Q[hArg]P[dR]L[Aib]H[Ala(piperidin-4-yl)]G[Oic][Phe(4-Br)]P[dBip]-OH),55.7%,5.01 nM,> 100000 nM,,
,,"CC(C)C[C@H](NC(=O)[C@@H](CCCNC(=N)N)NC(=O)C1C2CC2CN1C(=O)[C@H](CCCCNC(=N)N)NC(=O)[C@H](CCC(N)=O)NC(=O)[C@@H](CCCNC(=N)N)NC(=O)C(C)(C)C(=O)NCCc1c[nH]cn1)C(=O)NC(C)(C)C(=O)N[C@@H](Cc1c[nH]cn1)C(=O)N[C@@H](CC1CCNCC1)C(=O)NCC(=O)N1[C@H](C(=O)N[C@@H](Cc2ccc(Br)cc2)C(=O)N2CCC[C@H]2C(=O)N[C@H](Cc2ccc(-c3ccccc3)cc2)C(=O)O)C[C@@H]2CCCC[C@@H]21 (single isomer, unassigned) [37 Isomer 2]",,5.01 nM,,68.9,<4
,,CC(C)C[C@H](NC(=O)[C@@H](CCCNC(=N)N)NC(=O)[C@@H]1CCCN1C(=O)[C@H](CCCCNC(=N)N)NC(=O)[C@H](CCC(N)=O)NC(=O)[C@@H](CCCNC(=N)N)NC(=O)C(C)(C)C(=O)NCCc1ccccc1)C(=O)NC(C)(C)C(=O)N[C@@H](Cc1c[nH]cn1)C(=O)N[C@@H](CC1CCNCC1)C(=O)NCC(=O)N1[C@H](C(=O)N[C@@H](Cc2ccc(Br)cc2)C(=O)N2CCC[C@H]2C(=O)N[C@H](Cc2ccc(-c3ccccc3)cc2)C(=O)O)C[C@@H]2CCCC[C@@H]21 [Example 5] (X1-[dR]Q[hArg]P[dR]L[Aib]H[Ala(piperidin-4-yl)]G[Oic][Phe(4-Br)]P[dBip]-OH),47.2%,15.8 nM,> 10000 nM,,
,,CC(C)C[C@H](NC(=O)[C@@H](CCCNC(=N)N)NC(=O)[C@@H]1CCCN1C(=O)[C@H](CCCCNC(=N)N)NC(=O)[C@H](CCC(N)=O)NC(=O)C(C)(C)C(=O)NCCCc1cnc[nH]1)C(=O)NC(C)(C)C(=O)N[C@@H](Cc1c[nH]cn1)C(=O)N[C@@H](CC1CCNCC1)C(=O)NCC(=O)N1[C@H](C(=O)N[C@@H](Cc2ccc(Br)cc2)C(=O)N2CCC[C@H]2C(=O)N[C@H](Cc2ccc(-c3ccccc3)cc2)C(=O)O)C[C@@H]2CCCC[C@@H]21 [Example 61] (X4-Q[hArg]P[dR]L[Aib]H[Ala(piperidin-4-yl)]G[Oic][Phe(4-Br)]P[dBip]-OH),41.8%,10 nM,> 100000 nM,,
,,"CC(C)C[C@H](NC(=O)[C@@H](CCCNC(=N)N)NC(=O)[C@@H]1CCCN1C(=O)[C@H](CCCCNC(=N)N)NC(=O)[C@H](CCC(N)=O)NC(=O)[C@@H](CCCNC(=N)N)NC(=O)C(C)(C)C(=O)NCCc1c[nH]cn1)C(=O)NC(C)(C)C(=O)N[C@@H](Cc1c[nH]cn1)C(=O)N[C@@H](CC1CCNCC1)C(=O)NCC(=O)N1[C@H](C(=O)N[C@@H](Cc2ccc(Cl)cc2)C(=O)N2CCC[C@H]2C(=O)N[C@H](Cc2ccc(-c3ccccc3)cc2)C(=O)O)C[C@@H]2CCCC[C@@H]21 [Example 17] ({Malonyl(2,2-Me2,histaminyl)}-[dR]Q[hArg]P[dR]L[Aib]H[Ala(piperidin-4-yl)]G[Oic][Phe(4-Cl)]P[dBip]-OH)",78.8%,25.1 nM,> 10000 nM,,
,,"CC(C)C[C@H](NC(=O)[C@@H](CCCNC(=N)N)NC(=O)[C@@H]1CCCCN1C(=O)[C@H](CCCNC(=N)N)NC(=O)[C@H](CCC(N)=O)NC(=O)[C@@H](CCCNC(=N)N)NC(=O)C(C)(C)C(=O)NCCc1cnc[nH]1)C(=O)NC(C)(C)C(=O)N[C@@H](Cc1c[nH]cn1)C(=O)N[C@@H](CC1CCNCC1)C(=O)NCC(=O)N1[C@H](C(=O)N[C@@H](Cc2ccc(Br)cc2)C(=O)N2CCC[C@H]2C(=O)N[C@H](Cc2ccc(-c3ccccc3)cc2)C(=O)O)C[C@@H]2CCCC[C@@H]21 [Example 30] ({Malonyl(2,2-Me2,histaminyl)}-[dR]QR[Pip][dR]L[Aib]H[Ala(piperidin-4-yl)]G[Oic][Phe(4-Br)]P[dBip]-OH)",106%,5.01 nM,> 10000 nM,,
79.2%,31.6 nM,CC(C)C[C@H](NC(=O)[C@@H](CCCNC(=N)N)NC(=O)[C@@H]1CCCN1C(=O)[C@H](CCCCNC(=N)N)NC(=O)[C@H](CCC(N)=O)NC(=O)C(C)(C)C(=O)NCc1c[nH]cn1)C(=O)NC(C)(C)C(=O)N[C@@H](Cc1c[nH]cn1)C(=O)N[C@@H](CC1CCNCC1)C(=O)NCC(=O)N1[C@H](C(=O)N[C@@H](Cc2ccc(Br)cc2)C(=O)N2CCC[C@H]2C(=O)N[C@H](Cc2ccc(-c3ccccc3)cc2)C(=O)O)C[C@@H]2CCCC[C@@H]21 [Example 53] (X5-Q[hArg]P[dR]L[Aib]H[Ala(piperidin-4-yl)]G[Oic][Phe(4-Br)]P[dBip]-OH),,,> 10000 nM,,
59.2%,20 nM,COCCOCCOCCOCCOCCNC(=O)C(C)(C)C(=O)N[C@H](CCCNC(=N)N)C(=O)N[C@@H](CCC(N)=O)C(=O)N[C@@H](CCCCNC(=N)N)C(=O)N1CCC[C@H]1C(=O)N[C@H](CCCNC(=N)N)C(=O)N[C@@H](CC(C)C)C(=O)NC(C)(C)C(=O)N[C@@H](Cc1c[nH]cn1)C(=O)N[C@@H](CC1CCNCC1)C(=O)NCC(=O)N1[C@H](C(=O)N[C@@H](Cc2ccc(Br)cc2)C(=O)N2CCC[C@H]2C(=O)N[C@H](Cc2ccc(-c3ccccc3)cc2)C(=O)O)C[C@@H]2CCCC[C@@H]21 [Example 7] (X2-[dR]Q[hArg]P[dR]L[Aib]H[Ala(piperidin-4-yl)]G[Oic][Phe(4-Br)]P[dBip]-OH),,,> 10000 nM,,
